# BindingDB's records for doi:10.1016/j.ejmech.2016.06.019 (Federal University of Minas Gerais, 2016)
# Experiment: Activation of NQO1 in human A549 cells assessed as decrease in cell survival incubated for 2 hrs measured after 7 days in presence of NQO1 inhibitor dicoumarol by Hoechst 33258 staining based assay
row,SMILES,IC50
1,CC1(C)OC2=C(C(=O)C(=O)c3ccccc32)C1Nc1cccc([N+](=O)[O-])c1 (centres undefined),> 3.2 µM
2,CC1(C)OC2=C(C(=O)C(=O)c3ccccc32)C1Nc1ccc([N+](=O)[O-])cc1 (centres undefined),> 3.2 µM
3,CC1(C)OC2=C(C(=O)C(=O)c3ccccc32)C1Nc1cccc(-c2cn(C[Se]c3ccccc3)nn2)c1 (centres undefined),> 3.2 µM
4,CC1(C)OC2=C(C(=O)C(=O)c3ccccc32)C1Nc1ccc(F)c([N+](=O)[O-])c1 (centres undefined),> 3.2 µM
